Ki data for six molecules are collected here from ChEMBL document CHEMBL2412990, “Synthesis and pharmacological evaluation of new N-phenylpiperazine derivatives designed as homologues of the antipsychotic lead compound LASSBio-579” (Eur J Med Chem, 2013).

SMILES strings stand for the structures.

Assay [1] concerns the target T1, Adrenergic receptor alpha-2 (Rattus norvegicus, UniProt P22086+P19328+P22909).
T1 sequence (P22086 whole entry): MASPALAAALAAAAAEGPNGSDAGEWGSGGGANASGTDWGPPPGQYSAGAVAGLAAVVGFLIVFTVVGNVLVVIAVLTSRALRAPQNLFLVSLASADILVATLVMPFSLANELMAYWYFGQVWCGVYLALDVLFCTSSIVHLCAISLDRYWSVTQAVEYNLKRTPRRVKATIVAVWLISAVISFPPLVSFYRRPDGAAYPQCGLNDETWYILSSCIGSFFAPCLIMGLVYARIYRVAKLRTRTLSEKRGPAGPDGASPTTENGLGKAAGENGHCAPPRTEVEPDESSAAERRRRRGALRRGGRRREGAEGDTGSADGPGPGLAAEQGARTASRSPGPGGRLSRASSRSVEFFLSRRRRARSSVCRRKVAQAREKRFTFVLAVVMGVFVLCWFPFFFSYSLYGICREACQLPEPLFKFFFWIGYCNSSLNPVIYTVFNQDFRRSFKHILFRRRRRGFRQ
T1 sequence (P19328 whole entry): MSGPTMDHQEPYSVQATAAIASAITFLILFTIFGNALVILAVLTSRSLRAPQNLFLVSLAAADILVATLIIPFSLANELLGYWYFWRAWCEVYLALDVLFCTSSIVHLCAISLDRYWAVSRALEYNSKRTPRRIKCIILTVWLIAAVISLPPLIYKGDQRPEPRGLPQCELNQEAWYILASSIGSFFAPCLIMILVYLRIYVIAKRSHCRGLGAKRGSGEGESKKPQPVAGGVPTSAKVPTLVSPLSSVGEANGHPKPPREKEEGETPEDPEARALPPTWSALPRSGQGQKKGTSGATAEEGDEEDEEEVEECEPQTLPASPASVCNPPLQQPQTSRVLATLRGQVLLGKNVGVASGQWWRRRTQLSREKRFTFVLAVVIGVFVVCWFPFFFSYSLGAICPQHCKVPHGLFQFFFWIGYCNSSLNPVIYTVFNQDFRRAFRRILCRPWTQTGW
T1 sequence (P22909 whole entry): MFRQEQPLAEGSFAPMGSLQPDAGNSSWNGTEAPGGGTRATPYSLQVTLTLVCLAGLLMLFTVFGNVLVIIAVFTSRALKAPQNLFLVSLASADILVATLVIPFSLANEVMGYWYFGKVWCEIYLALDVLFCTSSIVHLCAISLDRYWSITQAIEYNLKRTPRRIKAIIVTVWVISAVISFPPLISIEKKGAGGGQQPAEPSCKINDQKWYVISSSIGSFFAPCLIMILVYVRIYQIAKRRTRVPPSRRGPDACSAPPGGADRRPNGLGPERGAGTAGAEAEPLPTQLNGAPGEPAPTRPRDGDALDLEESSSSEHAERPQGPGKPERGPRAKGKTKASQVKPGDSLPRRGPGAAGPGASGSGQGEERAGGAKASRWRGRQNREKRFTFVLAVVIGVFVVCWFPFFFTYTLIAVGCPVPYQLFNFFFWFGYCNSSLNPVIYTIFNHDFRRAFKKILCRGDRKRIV
Nature of the assay: Displacement of [3H]-RX821002 from alpha2 adrenoreceptor in rat brain cortical membranes after 45 mins by liquid scintillation counting. It is filed as cell membranes, Membrane. A general note: Displacement assays read how much labelled ligand stays bound in the presence of the test substance.

For assay [2], the target named is T2, 5-hydroxytryptamine receptor 2C (Homo sapiens, UniProt P28335).
T2 sequence (P28335 whole entry): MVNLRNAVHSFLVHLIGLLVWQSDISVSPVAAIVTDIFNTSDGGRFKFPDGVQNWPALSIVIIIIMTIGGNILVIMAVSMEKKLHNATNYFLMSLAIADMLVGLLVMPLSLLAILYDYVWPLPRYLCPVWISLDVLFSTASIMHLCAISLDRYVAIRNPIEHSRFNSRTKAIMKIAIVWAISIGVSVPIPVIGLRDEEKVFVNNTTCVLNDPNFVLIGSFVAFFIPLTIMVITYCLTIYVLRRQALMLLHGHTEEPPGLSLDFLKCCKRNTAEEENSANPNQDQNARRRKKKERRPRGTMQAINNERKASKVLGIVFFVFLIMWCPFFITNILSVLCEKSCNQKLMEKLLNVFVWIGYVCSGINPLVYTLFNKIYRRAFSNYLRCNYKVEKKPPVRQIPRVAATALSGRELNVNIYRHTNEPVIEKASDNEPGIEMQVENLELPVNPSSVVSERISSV
Nature of the assay: Displacement of [3H]-mesulergine from human 5HT2C receptor after 60 mins by liquid scintillation counting.

Assay [3] has as its target T3, Alpha-1B adrenergic receptor (Rattus norvegicus, UniProt P15823).
T3 sequence (P15823 whole entry): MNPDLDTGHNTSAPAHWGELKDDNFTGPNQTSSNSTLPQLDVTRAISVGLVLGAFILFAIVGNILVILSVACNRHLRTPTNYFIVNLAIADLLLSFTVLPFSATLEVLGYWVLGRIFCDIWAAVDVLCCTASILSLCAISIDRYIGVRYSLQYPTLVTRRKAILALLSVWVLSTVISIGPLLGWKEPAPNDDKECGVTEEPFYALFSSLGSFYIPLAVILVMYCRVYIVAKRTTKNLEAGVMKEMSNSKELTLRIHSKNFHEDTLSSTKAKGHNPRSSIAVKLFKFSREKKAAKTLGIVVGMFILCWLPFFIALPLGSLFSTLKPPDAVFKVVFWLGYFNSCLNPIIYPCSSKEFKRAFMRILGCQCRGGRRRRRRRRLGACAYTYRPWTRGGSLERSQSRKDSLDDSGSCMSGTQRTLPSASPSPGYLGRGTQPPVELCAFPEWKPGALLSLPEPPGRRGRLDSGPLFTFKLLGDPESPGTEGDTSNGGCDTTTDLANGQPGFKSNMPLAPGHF
Nature of the assay: Displacement of [3H]-[…] from alpha1B adrenoreceptor in rat liver membranes after 45 mins by liquid scintillation counting. It is filed as cell membranes, Membrane.

Another assay deals with T4, D(4) dopamine receptor (Homo sapiens, UniProt P21917).
T4 sequence (P21917 whole entry): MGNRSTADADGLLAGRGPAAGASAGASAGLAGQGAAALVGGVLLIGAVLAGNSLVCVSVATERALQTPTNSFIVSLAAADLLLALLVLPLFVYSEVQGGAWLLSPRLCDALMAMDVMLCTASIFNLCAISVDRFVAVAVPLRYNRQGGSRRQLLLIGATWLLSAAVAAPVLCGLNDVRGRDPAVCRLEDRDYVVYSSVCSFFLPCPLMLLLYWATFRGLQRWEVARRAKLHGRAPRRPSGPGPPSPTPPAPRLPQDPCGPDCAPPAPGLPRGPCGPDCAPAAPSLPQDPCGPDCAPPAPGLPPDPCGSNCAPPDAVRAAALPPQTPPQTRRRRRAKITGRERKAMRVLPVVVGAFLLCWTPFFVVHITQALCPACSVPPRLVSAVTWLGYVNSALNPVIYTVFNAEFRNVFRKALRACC
Nature of the assay: Displacement of [3H]-YM-09151-2 from human D4 receptor after 120 mins by liquid scintillation counting.

The target of a further assay is D(2) dopamine receptor (Rattus norvegicus, UniProt P61169). Nature of the assay: Displacement of [3H]-YM-09151-2 from D2 receptor in rat brain striatal membranes after 60 mins by liquid scintillation counting. It is filed as cell membranes, Membrane.
Sequence of D(2) dopamine receptor (P61169 whole entry): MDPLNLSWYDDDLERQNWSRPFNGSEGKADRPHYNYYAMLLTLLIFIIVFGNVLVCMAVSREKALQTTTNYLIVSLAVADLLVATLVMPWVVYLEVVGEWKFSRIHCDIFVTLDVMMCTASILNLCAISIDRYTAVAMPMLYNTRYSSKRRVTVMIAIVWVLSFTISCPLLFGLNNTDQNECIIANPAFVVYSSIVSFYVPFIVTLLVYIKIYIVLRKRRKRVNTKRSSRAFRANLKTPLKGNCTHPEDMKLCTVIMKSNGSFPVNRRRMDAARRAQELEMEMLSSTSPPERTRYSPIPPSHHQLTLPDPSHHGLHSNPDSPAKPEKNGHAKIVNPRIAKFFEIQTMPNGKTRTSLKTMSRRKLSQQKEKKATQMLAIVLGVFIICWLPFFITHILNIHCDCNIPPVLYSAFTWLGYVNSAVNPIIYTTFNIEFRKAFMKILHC

As a reminder, the Ki is a dissociation constant, usually derived from enzyme kinetics or from competition with a known ligand. A lower Ki goes with tighter binding. As for `Clc1ccc(-n2cc(CN3CCN(c4ccccc4)CC3)cn2)cc1`, the Ki stood at 2.5 µM in assay [1]; 8.63 µM in assay [2]; 2.6 µM in assay [3]; 0.18 µM on D(4) dopamine receptor; 0.39 µM at D(2) dopamine receptor.
For `Clc1ccc(-n2cc(CCCCN3CCN(c4ccccc4)CC3)cn2)cc1` the same measures were 0.61 µM, 5.9 µM, 0.57 µM, 0.8 µM and 0.25 µM.
Taken in the same sequence, the figures for `Clc1ccc(-n2cc(CCCN3CCN(c4ccccc4)CC3)cn2)cc1` were 1.6 µM, 5.1 µM, 0.7 µM, 0.33 µM and 0.68 µM.
In the case of `Clc1ccc(-n2cc(COCCCN3CCN(c4ccccc4)CC3)cn2)cc1`, the Ki in assay [1] was found to be 2.8 µM; in assay [2] it was 2.8 µM; in assay [3], 0.4 µM; at D(4) dopamine receptor, 1.5 µM; on D(2) dopamine receptor it was 0.79 µM.
Turning to `Clc1ccc(-n2cc(COCCN3CCN(c4ccccc4)CC3)cn2)cc1`, the inhibition constant (Ki) in assay [1] is 2.1 µM; in assay [2], 8.1 µM; in assay [3], 0.85 µM; on D(4) dopamine receptor, 0.1 µM; on D(2) dopamine receptor it was 1.9 µM.
Take `Clc1ccc(-n2cc(CCCCCN3CCN(c4ccccc4)CC3)cn2)cc1`: the inhibitory constant (Ki) in assay [1] came to 1.4 µM; in assay [2] it was 7.8 µM; in assay [3], 0.38 µM; on D(4) dopamine receptor, 1.18 µM; on D(2) dopamine receptor it was 0.49 µM.
